Source: patent US12016353B2, “Compositions and methods for aquaculturing” (The State of Israel, Ministry of Agriculture & Rural …, priority 2017, dated 2024)

Legend:
Type in all cases: in vivo, Sparus aurata
[1] = tested on: PepT1; test: Sustained effect of dietary butyrate on PepT1 mRNA expression in gilthead sea bream; conditions: for PepT1 transcription levels after butyrate feeding had ceased: 6 days after feeding butyrate ceased
Experimental: (§1) The experimental set up consisted of 200 L circular tanks in a flow through, filtered (10 μm) ambient seawater (40‰) system under a natural photoperiod of about 12 h/12 h (dark/light) where the water temperature ranged between 24.8-25.4° C. Experimental diets were offered to the fish twice a day (9:00; 14:00).
For determining whether (1) an effect of dietary butyrate on PepT1 transcriptional level is sustained after its supplementation has stopped and (2) to investigate an effect of dietary butyrate on Cdx1b expression. To this end another study was carried out. In this trial, fish having an average weight of 27.14±0.47 g (mean±SEM) were stocked at a density of 30 fish per tank with two replicate tanks per treatment. Fish were fed with the experimental diets (Table 4) including 1% taurine and 0, 0.8 and 1.6% of sodium butyrate for 8 days before its supplementation was stopped and all of the dietary groups started receiving the 0% sodium butyrate containing diet. Four fish from each tank (8 fish per dietary treatment) were sampled for their proximal intestine total RNA at days 9, 12 and 15 of the trial.
Fish were euthanized with an overdose of MS2-22 (Sigma Aldrich, USA) followed by a swift decapitation and then dissected for the removal of their gastrointestinal tract. For total RNA, the 1st segment of the proximal intestine (approx. 1 cm) was cut, immediately frozen and stored at −80° C. until RNA extraction. For histology, pieces of the proximal intestine (approx. 0.6 cm) were sampled, placed in 15 ml Falcon tubes containing 10% neutral buffered formalin (NBF) and stored at room temperature until processed. For immunohistochemistry (IHC-P) staining, pieces of proximal intestine (approx. 0.6 cm) were sampled, placed in 1.7 ml microcentrifuge tubes containing 4% paraformaldehyde (PFA) and stored at 4° C. for overnight fixation. After fixation, the intestinal samples were rinsed twice and washed three times (10 min each) with PBST 0.8% (PBS with 0.8% Triton x-100, Sigma Aldrich, USA). Following this, the samples were gradually dehydrated by one 5 min wash with 50% methanol in PBST followed by three more washings with 100% methanol and stored in 100% methanol at −20° C. until carrying out the staining procedure. After the removal of the gastrointestinal tract, the remaining carcasses of sampled fish were put into nylon bags and stored at −20° C. until proximate analysis. In order to calculate the gut index (GI), fish were weighed prior to the removal of their gastrointestinal tract. The intestines were separated from the stomach and pyloric caeca and then aligned, by forceps, against a ruler for measuring their length (mm). For each fish, gut index was calculated using the following formula: Gut index=100×Body weight (g)/(intestine length (mm))^3.
(§2) Total RNA extraction from samples of the proximal intestine was carried out using BioTri reagent (Biolab, Israel) according to the manufacturer's instructions. For determining total RNA quality and concentration, 2 μl from each sample diluted with 18 μl of DEPC treated water (1:10) were loaded onto a 384 well microplate (Greiner Bio-One, Austria). In each sample the 260/280 ratio, 260/230 ratio and RNA concentration were obtained by plate reader and Gen5 software (Synergy HT, BioTek, USA). For each RNA extraction procedure, the integrity of the extracted RNA was evaluated by electrophoresis on 1.2% agarose gel stained with GelRed (Biotium, USA). […]

[2] = tested on: PCNA; test: PCNA mRNA expression in sea bream proximal intestine (intestinal epithelial cell proliferation); conditions: 0.8% sodium butyrate diet for 9 days, 1.5 h after feeding, P<0.05, FIG. 6
Experimental: Fish having an average weight of 14.49±0.2 g (mean±SEM) were stocked in 15 tanks at a density of 30 fish tank^−1 with 5 replicate tanks (assigned as A-E) dietary treatment^−1. […]
as §2
Specific real-time PCR primers (Table 6) were designed for amplifying the sea bream PepT1 (accession no. GU733710.1), PCNA (accession no. CX734891.1), CCK, Cdx1b and β-actin (accession no. AY362763.1) transcripts. Quantification of target gene transcripts of different treatments was achieved by PCR reaction mix (10 μl) containing SYBR Green dye (Quanta, Perfecta; SYBR Green FastMix, Low ROX; 95074-012), template cDNA and 500 nM of target specific primers in a quantitative PCR system (Applied Biosystems, 7500 Fast Real Time PCR System). […]

[3] = tested on: PepT1; test: PepT1 pattern of expression during the day in gilthead sea bream (10 day trial); conditions: diet with 0.8% sodium butyrate and 1% taurine versus control, FIG. 4
Experimental: as §1
Fish having an average weight of 14.49±0.2 g (mean±SEM) were stocked in […] at a density of 30 fish tank^−1 with 5 replicate tanks (assigned as A-E) dietary treatment^−1. During the 10 day trial, fish were offered the experimental diets (Table 4) with 1% taurine and with 0 and 0.8% of sodium butyrate (Sigma Aldrich, USA). […]
(§3) Fish were euthanized with an overdose of MS2-22 (Sigma Aldrich, USA) followed by a swift decapitation and then dissected for the removal of their gastrointestinal tract. […] For each fish, gut index was calculated using the following formula: Gut index=100×Body weight (g)/(intestine length (mm))^3.
as §2, with “For determining total RNA quality and concentration, 2 μl from each sample diluted with 18 μl of DEPC treated water (1:10) were loaded onto a 384 well microplate (Greiner Bio-One, Austria).” left out

[4] = tested on: proximal intestine epithelium; test: Histological analysis of proximal intestine cross sections of sea bream (inner/outer perimeter ratio); conditions: 1.6% sodium butyrate, independent of dietary protein level, P<0.001, FIG. 9
Experimental: During the 13 week trial, fish were weighed approximately every two weeks. The data were used to calculate growth rates and to adjust the daily rations of feed. At the end of the trial, 6 fish from each tank were sampled for calculating gut index and extracting their proximal intestine total RNA. Two other fish were sampled for histology and body composition. All sampling procedures were performed as described.
as §3, with “tract. For total RNA, the 1st segment of the proximal intestine (approx. 1 cm) was cut, immediately frozen and stored at −80° C. until RNA extraction.” for “tract.”
Standard protocol for histological analysis was implemented (Grate et al., 2003). […] Intestinal cross sections were photographed under a stereo zoom microscope (Axio Zoom.V16, Zeiss, Germany) and the inner and outer perimeter (mm) of the sections were measured using ImageJ software (imagej(dot)nih(dot)gov/ij/). […] The calculated ratio (inner perimeter/outer perimeter) for each section was then averaged for each slide/sample and analyzed for differences between treatments.

CCCC(=O)[O-].[Na+] [sodium butyrate]
PepT1 transcription levels after butyrate feeding had ceased ([1]; 0.8% butyrate for 8 days, FIG. 5B): remained higher than the control | PepT1 transcription ([1]; 0.8% butyrate in diet for 8 days versus control, FIG. 5A): significantly (P<0.001) increased | PepT1 transcription levels after butyrate feeding had ceased ([1]; 1.6% butyrate for 8 days, FIG. 5C): remained higher than the control | PepT1 transcription ([1]; 1.6% butyrate in diet for 8 days versus control, FIG. 5A): significantly (P<0.001) increased | PepT1 transcription, increase over control ([1]; 1.6% butyrate in diet for 8 days, FIG. 5A): more than 2 fold | PCNA expression relative to control [2]: more than 2 fold | PepT1 expression prior to the morning feeding [3]: significantly (P<0.01) higher PepT1 expression | expansion of the inner to outer perimeter ratio of the proximal intestine [4]: approximately 30%
